From US10632227B2, “Method of making injectable cements” (Wayne State University, priority 2015, dated 2020)

Tested on: S. aureus
Assay: modified MIC assay, bactericidal activity of eluents from CPP mix cements
Type: cell-based
Conditions: EM eluted from cement or gel
Procedure: A modified minimum inhibitory concentration (MIC) assay was developed to measure the bactericidal activity of erythromycin eluted from the CPP mix cements. Briefly, a Mueller-Hinton broth inoculated with S. aureus […] was cultured at about 37° C. until an absorbance reading of about 0.08 to about 0.1 was attained at 625 nm, corresponding to roughly 1-2×10^8 CFU/ml. Then about 200 μl of eluents from CPP mix cements collected at various time points was added into about 800 μL of the bacterial broth and incubation continued at about 37° C. for about 6 hours, followed by OD measurement at about 625 nm. The MIC was determined by the lowest concentration that inhibited the growth of bacterium as characterized by a lack of turbidity and lower OD readings. Bacterial culture in Mueller Hinton broth without erythromycin was included as a positive control. Bactericidal activity assays were conducted in duplicate for both the blank and testing samples.

Compound: CC[C@H]1OC(=O)[C@H](C)[C@@H](O[C@H]2C[C@@](C)(OC)[C@@H](O)[C@H](C)O2)[C@H](C)[C@@H](O[C@@H]2O[C@H](C)C[C@H](N(C)C)[C@H]2O)[C@](C)(O)C[C@@H](C)C(=O)[C@H](C)[C@@H](O)[C@]1(C)O [EM, erythromycin]
- bactericidal activity / stability of eluted EM: stable and active
